Measurements as given in patent US20230416299A1, “COMPOUND AND METHOD FOR THE TREATMENT AND DIAGNOSIS OF NEURODEGENERATIVE CONDITIONS” (Swansea University, priority 2013, published 2023).

What was measured:
Lxrβ-LBD = target: T1, Lxrβ-LBD (Homo sapiens, UniProt P55055); test: LanthaScreen TR-FRET Lxrβ coactivator assay; assay type: binding
T1 construct: purchased Invitrogen
T1 sequence (P55055 222-460 limits assumed): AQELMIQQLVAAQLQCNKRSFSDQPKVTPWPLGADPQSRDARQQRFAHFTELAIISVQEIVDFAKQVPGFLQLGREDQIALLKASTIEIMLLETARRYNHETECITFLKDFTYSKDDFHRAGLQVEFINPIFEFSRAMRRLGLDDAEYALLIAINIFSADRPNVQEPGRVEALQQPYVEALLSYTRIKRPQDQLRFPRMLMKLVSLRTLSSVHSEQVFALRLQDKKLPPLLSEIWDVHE
Source text: Lxrβ Ligand Binding Assay. For Lxrβ ligand binding activity measurement, the applicants used the LANTHASCREEN™ TR-FRET Lxrβ Coactivator Assay (Invitrogen). The assay uses a terbium (Tb)-labeled anti-GST antibody, a fluorescein-labeled coactivator peptide and the Lxrβ-LBD tagged with glutathione-S-transferase (GST). Binding of the agonist/ligand to Lxrβ-LBD causes a conformational change that result in an increase in the affinity of the Lxrβ for the coactivator peptide. The close proximity of the fluorescently labeled coactivator peptide to the Tb-labeled antibody causes an increase in the TR-FRET signal intensity. The TR-FRET ratio of 520/495 was calculated using a Victor multi label reader with an excitation wavelength of 340 nm and emission wavelengths of 520 nm and 495 nm. The activational capacity of potential ligands was tested in a […] polypropylene plate, following the manufacturer's protocol.

Lxrα = target: T2, Lxrα (Homo sapiens, UniProt Q13133); test: Lxr-responsive luciferase reporter assay (Lxre + Lxrα) in SN4741 neural cells; assay type: cell-based, mouse; conditions: 10 μM, 24 h
T2 construct: expressed in transfected cells; host or cells: SN4741 mouse neuronal cell line
T2 sequence (Q13133 1-447): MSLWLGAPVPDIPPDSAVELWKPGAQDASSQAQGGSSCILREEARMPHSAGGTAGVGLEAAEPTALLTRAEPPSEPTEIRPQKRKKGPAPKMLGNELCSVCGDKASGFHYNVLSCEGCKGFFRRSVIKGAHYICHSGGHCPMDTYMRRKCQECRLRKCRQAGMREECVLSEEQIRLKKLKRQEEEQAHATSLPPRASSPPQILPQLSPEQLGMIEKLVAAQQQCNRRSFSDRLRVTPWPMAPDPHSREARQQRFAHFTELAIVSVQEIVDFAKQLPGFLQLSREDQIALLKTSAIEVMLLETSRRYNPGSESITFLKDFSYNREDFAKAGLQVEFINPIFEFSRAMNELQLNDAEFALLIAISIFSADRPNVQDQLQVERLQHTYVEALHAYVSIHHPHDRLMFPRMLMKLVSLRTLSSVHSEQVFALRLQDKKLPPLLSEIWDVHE
Source text: (§1) Luciferase Reporter Assay.

Lxrβ = target: T3, Lxrβ (Homo sapiens, UniProt P55055); test: Lxr-responsive luciferase reporter assay (Lxre + Lxrβ) in SN4741 neural cells; assay type: cell-based, mouse; conditions: for Lxrβ activation, luciferase activity: SN4741 cells, 10 μM, 24 h; for Lxrβ activational capacity in combination with 22R-HC: acid 10 μM + 22R-HC 10 μM
T3 construct: expressed in transfected cells; host or cells: SN4741 mouse neuronal cell line
T3 sequence (P55055 1-460): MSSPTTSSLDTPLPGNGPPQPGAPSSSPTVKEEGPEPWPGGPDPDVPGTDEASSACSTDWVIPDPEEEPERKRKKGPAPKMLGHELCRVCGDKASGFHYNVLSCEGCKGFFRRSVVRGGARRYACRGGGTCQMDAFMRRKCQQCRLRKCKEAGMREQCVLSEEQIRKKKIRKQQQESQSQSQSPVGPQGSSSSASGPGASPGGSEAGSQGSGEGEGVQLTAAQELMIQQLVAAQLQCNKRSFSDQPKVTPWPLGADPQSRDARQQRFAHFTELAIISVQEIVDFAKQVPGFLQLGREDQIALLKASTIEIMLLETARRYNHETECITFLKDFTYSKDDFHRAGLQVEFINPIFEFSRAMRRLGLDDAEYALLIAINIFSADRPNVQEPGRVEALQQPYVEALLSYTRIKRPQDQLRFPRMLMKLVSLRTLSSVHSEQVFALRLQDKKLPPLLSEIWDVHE
Source text: as §1

Row | SMILES | Competitor concentration with significant difference (p<0.05) from 10 μM 3β,7α-diHCA alone in TR-FRET Lxrβ coactivator assay (Lxrβ-LBD; added to 10 μM 3β,7α-diHCA) [µM] | Competition with 3β,7α-diHCA in TR-FRET Lxrβ coactivator assay (Lxrβ-LBD; increasing concentrations with 3β,7α-diHCA at its most potent concentration) | Lxrα activation, luciferase activity (Lxrα) | Lxrβ activation, luciferase activity (Lxrβ) | Lxrβ activational capacity in combination with 22R-HC (Lxrβ) | TR-FRET induction (coactivator recruitment to Lxrβ-LBD) (Lxrβ-LBD; dose response)
1 | CC(CCC[C@@H](C)[C@H]1CC[C@H]2[C@@H]3CC=C4C[C@@H](O)CC[C@]4(C)[C@H]3CC[C@]12C)C(=O)O (stereo partly drawn) [3β-HCA, 3β-hydroxycholest-5-en-26-oic acid] | ≥ 5 | the effect of 3β,7α-diHCA was reduced to that of the latter acids | activates Lxr | activates Lxr | No additive effect was observed | –
2 | CC(CCC[C@@H](C)[C@H]1CC[C@H]2[C@@H]3[C@H](O)C=C4C[C@@H](O)CC[C@]4(C)[C@H]3CC[C@]12C)C(=O)O (stereo partly drawn) [3β,7α-diHCA, 3β,7α-dihydroxycholest-5-en-26-oic acid] | – | – | have the ability to activate both Lxrs | have the ability to activate both Lxrs | No additive effect was observed | induced FRET in a dose dependent manner to a higher degree than the other acids
